A short description of data set [1]: Apparent LNP pKa by 2-(p-toluidino)-6-napthalene sulfonic acid (TNS) assay. The format is physicochemical. Particulars: pH at half of maximum fluorescence.
A short description of data set [2]: Surface hydrophobicity by Generalized Polarization by Laurdan (GPL). The format is physicochemical. Particulars: normalized Generalized Polarization by Laurdan; higher N-GP = less polar surface. An excerpt:
Nanoparticle compositions including a therapeutic and/or prophylactic can be optimized according to the selection of a compound according to Formula (I), (I-1), (A), (A-1), (A-1a), or (A-1b), the selection of additional lipids, the amount of each lipid in the lipid component, and the wt:wt ratio of the lipid component to the therapeutic and/or prophylactic. Nanoparticle compositions including DSPC as a phospholipid, cholesterol as a structural lipid, PEG 2 as a PEG lipid, and a compound according to Formula (I), (I-1), (A), (A-1), (A-1a), or (A-1b) were prepared. The ratios of the lipids were 50:10:38:2 mol % for the lipid according to Formula (I), (I-1), (A), (A-1), (A-1a), or (A-1b):DSPC:cholesterol:PEG 2.
Laurdan, a fluorescent aminonaphthalene ketone lipid, was post-inserted into the nanoparticle surface and the fluorescence spectrum of Laurdan was collected to determine the normalized Generalized Polarization (N-GP). Higher N-GP indicates a less polar surface.

A short description of data set [3]: Heparin-sepharose binding of nanoparticles.
The test system of data set [4] is hEPO mRNA. The data set is described as follows: hEPO expression in CD1-mice after intravenous administration of nanoparticles. The format is in vivo. Particulars: 6 h after intravenous administration, mRNA dose 0.5 mg/kg, N:P 3.4, compound:DSPC:cholesterol:PEG 2 50:10:38:2. On the procedure: The expression of hEPO mRNA in CD1-mice was measured 6 h after intravenous administration of nanoparticles comprising a compound of the disclosure, DSPC, cholesterol, and PEG 2 in a ratio of 50:10:38:2. […] Each composition was dosed to 8 animals at an mRNA dose of 0.5 mg/kg.

The source of these data is patent publication US20230000773A1, “NOVEL HEADGROUP LIPID COMPOUNDS AND COMPOSITIONS FOR INTRACELLULAR DELIVERY OF THERAPEUTIC AGENTS” (ModernaTX, Inc., priority 2019, published 2023).

Counter-ions that a name gives are not always drawn.

Consider `CCCCCCCCC(CC)OC(=O)CCCCCCCN(CCCCCCCC(=O)OC(CCCCCCCC)CCCCCCCC)CCCNC1=NC(=O)NC1` (stereo not drawn) [Compound 79, Heptadecan-9-yl 8-((3-((2-oxo-2,5-dihydro-1H-imidazol-4-yl)amino)propyl)(8-oxo-8-(undecan-3-yloxy)octyl)amino)octanoate], for which, in data set [1], the “LogIC50 (pKa)” value was 6.23. Also, in data set [2], the “Average N-GP” value stood at 0.683. Further, the “Relative % Area Bound by LNP” value in data set [3] is on record as 0%. Further, the “Avg. [hEPO] mIU/mL” value in data set [4] is recorded as 4.04E+04 mIU/mL.
As to `CCCCCCCCC(CC)OC(=O)CCCCCCCN(CCCCCCCC(=O)OC(CCCCCCCC)CCCCCCCC)CCCN/C=N/S(C)(=O)=O` (stereo not drawn) [Compound 86, Heptadecan-9-yl (E)-8-((3-(N′-(methylsulfonyl)formimidamido)propyl)(8-oxo-8-(undecan-3-yloxy)octyl)amino)octanoate], the “LogIC50 (pKa)” value in data set [1] turned out to be 6.59. The “Average N-GP” value in data set [2] was 0.737. In addition, the “Relative % Area Bound by LNP” value in data set [3] was 0%.
Take `CCCCCCCCC(CC)OC(=O)CCCCCCCN(CCCCCCCC(=O)OC(CCCCCCCC)CCCCCCCC)CCCNC1=NS(=O)(=O)CCN1` (stereo not drawn) [Compound 77, Heptadecan-9-yl 8-((3-((1,1-dioxido-5,6-dihydro-4H-1,2,4-thiadiazin-3-yl)amino)propyl)(8-oxo-8-(undecan-3-yloxy)octyl)amino)octanoate]: the “LogIC50 (pKa)” value in data set [1] amounted to 6.80. In addition, the “Average N-GP” value in data set [2] is 0.824. For the same molecule, the “Relative % Area Bound by LNP” value in data set [3] came out at 0%. The “Avg. [hEPO] mIU/mL” value in data set [4] came to 7.75E+04 mIU/mL.
In the case of `CCCCCCCCC(CC)OC(=O)CCCCCCCN(CCCCCCCC(=O)OC(CCCCCCCC)CCCCCCCC)CCCN/C(=N/O)c1nonc1N` (racemic) [Compound 55/56, Heptadecan-9-yl (E/Z)-8-((3-(4-amino-N′-hydroxy-1,2,5-oxadiazole-3-carboximidamido)propyl)(8-oxo-8-(undecan-3-yloxy)octyl)amino)octanoate], the “LogIC50 (pKa)” value in data set [1] is recorded as 5.61. Also, the “Relative % Area Bound by LNP” value in data set [3] came out at 0%. The “Avg. [hEPO] mIU/mL” value in data set [4] amounted to 1.37E+05 mIU/mL.
Take `CCCCCCCCC(CC)OC(=O)CCCCCCCN(CCCCCCCC(=O)OC(CCCCCCCC)CCCCCCCC)CCCNC(C(=O)NC)C(=O)NC` (stereo not drawn) [Compound 16, Heptadecan-9-yl 8-((3-((1,3-bis(methylamino)-1,3-dioxopropan-2-yl)amino)propyl)(8-oxo-8-(undecan-3-yloxy)octyl)amino)octanoate Trifluoroacetate Salt]: the “LogIC50 (pKa)” value in data set [1] was 7.01. Further, the “Average N-GP” value in data set [2] was 0.595. Moreover, the “Relative % Area Bound by LNP” value in data set [3] was 57.65%. Also, in data set [4], the “Avg. [hEPO] mIU/mL” value is reported as 1.72E+05 mIU/mL.
The matching figures for `CCCCCCCCC(CC)OC(=O)CCCCCCCN(CCCCCCCC(=O)OC(CCCCCCCC)CCCCCCCC)CCCNC(=O)C1CCC(=O)N1` (stereo not drawn) [Compound 78, Heptadecan-9-yl 8-((8-oxo-8-(undecan-3-yloxy)octyl)(3-(5-oxopyrrolidine-2-carboxamido)propyl)amino)octanoate]: 6.94, 0.622, 36.14% and 1.11E+05 mIU/mL.
Regarding `CCCCCCCCC(CC)OC(=O)CCCCCCCN(CCCCCCCC(=O)OC(CCCCCCCC)CCCCCCCC)CCCNS(=O)(=O)c1ccnn1COC` (stereo not drawn) [Compound 75, Heptadecan-9-yl 8-((3-((1-(methoxymethyl)-1H-pyrazole)-5-sulfonamido)propyl)(8-oxo-8-(undecan-3-yloxy)octyl)amino)octanoate], the “LogIC50 (pKa)” value in data set [1] turned out to be 6.50. For the same molecule, the “Average N-GP” value in data set [2] is 0.831. Moreover, the “Relative % Area Bound by LNP” value in data set [3] amounted to 1.97%. The “Avg. [hEPO] mIU/mL” value in data set [4] was found to be 6.24E+05 mIU/mL.
As for `CCCCCCCCC(CC)OC(=O)CCCCCCCN(CCCCCCCC(=O)OC(CCCCCCCC)CCCCCCCC)CCCNC(=O)CS(=O)(=O)NC` (stereo not drawn) [Compound 76, Heptadecan-9-yl 8-((3-(2-(N-methylsulfamoyl)acetamido)propyl)(8-oxo-8-(undecan-3-yloxy)octyl)amino)octanoate], the “LogIC50 (pKa)” value in data set [1] was determined as 6.92. In addition, in data set [2], the “Average N-GP” value amounted to 0.683. Moreover, in data set [3], the “Relative % Area Bound by LNP” value is 31.61%. The “Avg. [hEPO] mIU/mL” value in data set [4] came out at 1.50E+05 mIU/mL.
The like results for `CCCCCCCCC(CC)OC(=O)CCCCCCCN(CCCCCCCC(=O)OC(CCCCCCCC)CCCCCCCC)CCCN/C=C1\NC(=O)NC1=O` (mixture of isomers) [Compound 51/52, Heptadecan-9-yl (E/Z)-8-((3-(((2,5-dioxoimidazolidin-4-ylidene)methyl)amino)propyl)(8-oxo-8-(undecan-3-yloxy)octyl)amino)octanoate] were, in that order, 6.48, 0.921, 2.25% and 1.86E+05 mIU/mL.
Regarding `CCCCCCCCC(CC)OC(=O)CCCCCCCN(CCCCCCCC(=O)OC(CCCCCCCC)CCCCCCCC)CCCNc1nnc(N)[nH]1` (stereo not drawn) [Compound 11, Heptadecan-9-yl 8-((3-((5-amino-4H-1,2,4-triazol-3-yl)amino)propyl)(8-oxo-8-(undecan-3-yloxy)octyl)amino)octanoate], in data set [1], the “LogIC50 (pKa)” value is 6.88. In data set [4], the “Avg. [hEPO] mIU/mL” value is 1.69E+04 mIU/mL.
For the molecule `CCCCCCCCC(CC)OC(=O)CCCCCCCN(CCCCCCCC(=O)OC(CCCCCCCC)CCCCCCCC)CCCNC1=C(C#N)C(=O)OC1` (stereo not drawn) [Compound 81, Heptadecan-9-yl 8-((3-((4-cyano-5-oxo-2,5-dihydrofuran-3-yl)amino)propyl)(8-oxo-8-(undecan-3-yloxy)octyl)amino)octanoate Trifluoroacetate Salt], the “LogIC50 (pKa)” value in data set [1] is 6.48. For the same molecule, the “Average N-GP” value in data set [2] is 0.752. Further, in data set [3], the “Relative % Area Bound by LNP” value is 0%. Besides, the “Avg. [hEPO] mIU/mL” value in data set [4] amounted to 4.96E+05 mIU/mL.
As to `CCCCCCCCC(CC)OC(=O)CCCCCCCN(CCCCCCCC(=O)OC(CCCCCCCC)CCCCCCCC)CCCNS(=O)(=O)CC(=O)NC` (stereo not drawn) [Compound 80, Heptadecan-9-yl 8-((3-((2-(methylamino)-2-oxoethyl)sulfonamido)propyl)(8-oxo-8-(undecan-3-yloxy)octyl)amino)octanoate], the “LogIC50 (pKa)” value in data set [1] stood at 6.75. Also, the “Average N-GP” value in data set [2] is 0.703. For the same molecule, the “Relative % Area Bound by LNP” value in data set [3] amounted to 10.99%. Also, the “Avg. [hEPO] mIU/mL” value in data set [4] is listed as 7.69E+04 mIU/mL.
The matching figures for `CCCCCCCCC(CC)OC(=O)CCCCCCCN(CCCCCCCC(=O)OC(CCCCCCCC)CCCCCCCC)CCCNc1nnc(N)s1` (stereo not drawn) [Compound 82, Heptadecan-9-yl 8-((3-((5-amino-1,3,4-thiadiazol-2-yl)amino)propyl)(8-oxo-8-(undecan-3-yloxy)octyl)amino)octanoate Trifluoroacetate Salt]: 6.25, 0.920, 1.67% and 2.18E+05 mIU/mL.
The matching figures for `CCCCCCCCC(CC)OC(=O)CCCCCCCN(CCCCCCCC(=O)OC(CCCCCCCC)CCCCCCCC)CCCNS(=O)(=O)c1ncccn1` (stereo not drawn) [Compound 73, Heptadecan-9-yl 8-((8-oxo-8-(undecan-3-yloxy)octyl)(3-(pyrimidine-2-sulfonamido)propyl)amino)octanoate]: 6.61, 0.747, 0% and 4.64E+05 mIU/mL.
The like results for `CCCCCCCCC(CC)OC(=O)CCCCCCCN(CCCCCCCC(=O)OC(CCCCCCCC)CCCCCCCC)CCCNS(=O)(=O)Cc1ccccc1` (stereo not drawn) [Compound 74, Heptadecan-9-yl 8-((8-oxo-8-(undecan-3-yloxy)octyl)(3-((phenylmethyl)sulfonamido)propyl)amino)octanoate] were, in that order, 6.42, 0.938, 6.14% and 1.21E+05 mIU/mL.
Regarding `CCCCCCCCC(CC)OC(=O)CCCCCCCN(CCCCCCCC(=O)OC(CCCCCCCC)CCCCCCCC)CCCNc1nccnc1NC` (stereo not drawn) [Compound 25, Heptadecan-9-yl 8-((3-((3-(methylamino)pyrazin-2-yl)amino)propyl)(8-oxo-8-(undecan-3-yloxy)octyl)amino)octanoate, trifluoroacetate Salt], the “LogIC50 (pKa)” value in data set [1] was found to be 7.46. Further, the “Average N-GP” value in data set [2] came to 0.869. The “Relative % Area Bound by LNP” value in data set [3] turned out to be 0%. For the same molecule, the “Avg. [hEPO] mIU/mL” value in data set [4] was 4.29E+05 mIU/mL.
